The source of these data is BindingDB's records for doi:10.1007/s00210-003-0860-y (UniversitÄT WÜRzburg, 2004).

Where a name gives a salt, the structure may show the parent alone.

Experiment [1] addresses Beta-3 adrenergic receptor (Homo sapiens, UniProt P13945).
The target of experiment [2] is Beta-2 adrenergic receptor (Homo sapiens, UniProt P07550).
Chain of Beta-2 adrenergic receptor (P07550 whole entry): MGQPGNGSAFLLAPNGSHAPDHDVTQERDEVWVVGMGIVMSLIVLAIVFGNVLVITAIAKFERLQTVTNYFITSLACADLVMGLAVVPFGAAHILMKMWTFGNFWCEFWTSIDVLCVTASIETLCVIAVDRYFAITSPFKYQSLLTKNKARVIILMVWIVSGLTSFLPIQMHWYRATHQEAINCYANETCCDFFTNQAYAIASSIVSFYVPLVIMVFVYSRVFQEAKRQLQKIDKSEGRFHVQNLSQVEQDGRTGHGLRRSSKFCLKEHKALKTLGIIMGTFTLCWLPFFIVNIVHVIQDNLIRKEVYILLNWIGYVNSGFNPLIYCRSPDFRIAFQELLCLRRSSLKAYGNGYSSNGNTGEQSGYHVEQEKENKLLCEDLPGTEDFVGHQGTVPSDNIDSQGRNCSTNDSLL

Chain of Beta-3 adrenergic receptor (P13945 whole entry): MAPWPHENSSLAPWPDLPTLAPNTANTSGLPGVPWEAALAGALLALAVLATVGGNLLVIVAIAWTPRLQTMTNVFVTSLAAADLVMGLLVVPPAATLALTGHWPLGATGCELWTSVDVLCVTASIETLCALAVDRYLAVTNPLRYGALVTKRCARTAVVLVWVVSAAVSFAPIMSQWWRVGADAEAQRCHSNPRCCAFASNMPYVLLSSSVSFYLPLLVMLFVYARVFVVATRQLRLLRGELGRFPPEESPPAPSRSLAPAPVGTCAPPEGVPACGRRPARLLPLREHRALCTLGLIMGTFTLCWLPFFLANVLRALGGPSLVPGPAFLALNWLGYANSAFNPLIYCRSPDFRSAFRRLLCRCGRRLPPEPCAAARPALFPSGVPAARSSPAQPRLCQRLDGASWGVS

`CC(C)(C)NCC(O)c1cc(O)cc(O)c1` (racemic) [Terbutaline,(+/-)] displayed a Ki in experiment [1] of over 10 µM.

With `CC(C)(C)NCC(O)COc1cccc2[nH]c(=O)[nH]c12` (centres undefined) [4-[3-(tert-butylamino)-2-hydroxypropoxy]-2,3-dihydro-1H-1,3-benzodiazol-2-one hydrochloride], the Ki in experiment [1] came out at 0.0771 µM.

As to `CC(Cc1ccc(OCC(=O)O)cc1)NCC(O)c1cccc(Cl)c1` (centres undefined) [CAS_2437], affinity in experiment [2] was put at a Ki of 9.17 µM.

As for `CCc1ccccc1OC[C@@H](O)CN[C@H]1CCCc2ccccc21` [CAS_174689-39-5], the figures for the Ki in experiment [1] and in experiment [2] were 0.122 µM and 0.0619 µM, respectively.

`CNCC(O)c1ccc(O)c(O)c1` (centres undefined) [EPINEPHRINE] yielded a Ki in experiment [1] of over 10 µM.

For `CC(C)(C)NCC(O)c1cc(Br)no1` (centres undefined) [NSC_71149], the inhibition constant (Ki) came out at 3.99 µM in experiment [1] and 1.29 µM in experiment [2].

In the case of `OCc1cc(C(O)CNCCCCCCOCCCCc2ccccc2)ccc1O` (centres undefined) [salmeterol xinafoate], the Ki in experiment [1] came to 7.18 µM.

As a reminder, the Ki is a measure of affinity in units of concentration, obtained from inhibition or displacement. Low readings indicate tighter binding, high ones weaker binding.
